What was measured:
barnyardgrass [1] = test: Test B flooded paddy test; type: in vivo, Echinochloa crus-galli; conditions: Flood, scale of 0 to 100 where 0 is no effect and 100 is complete control
How it was run: (§1)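 Scored visually 0–100 (0 no effect, 100 complete control) versus controls after 13 to 15 greenhouse days. Treatment: compound added to paddy water kept 3 cm above soil, on 2-leaf-stage plants.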

sedge, umbrella = test: Test B flooded paddy test; type: in vivo, Cyperus difformis; conditions: Flood, scale of 0 to 100 where 0 is no effect and 100 is complete control
How it was run: as §1

barnyardgrass [2] = test: Test A pre-/postemergence herbicide test; type: in vivo, Echinochloa crus-galli
How it was run: (§2)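 Planted in loam–sand blend; treated the same day preemergence by directed soil spray, while separately grown plants at one- to two-leaf stage got postemergence spray. Compared visually with untreated controls after approximately 10 days; 100 means complete control.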

morningglory = test: Test A pre-/postemergence herbicide test; type: in vivo, Ipomoea spp.
How it was run: as §2

velvetleaf = test: Test A pre-/postemergence herbicide test; type: in vivo, Abutilon theophrasti
How it was run: as §2

wheat = test: Test A pre-/postemergence herbicide test; type: in vivo, Triticum aestivum
How it was run: as §2

rice = test: Test B flooded paddy test; type: in vivo, Oryza sativa; conditions: Flood, scale of 0 to 100 where 0 is no effect and 100 is complete control
How it was run: as §1

ducksalad = test: Test B flooded paddy test; type: in vivo, Heteranthera limosa; conditions: Flood, scale of 0 to 100 where 0 is no effect and 100 is complete control
How it was run: as §1

corn = test: Test A pre-/postemergence herbicide test; type: in vivo, Zea mays
How it was run: as §2

pigweed = test: Test A pre-/postemergence herbicide test; type: in vivo, Amaranthus retroflexus
How it was run: as §2

giant foxtail = test: Test A pre-/postemergence herbicide test; type: in vivo, Setaria faberii
How it was run: as §2

crabgrass, large = test: Test A pre-/postemergence herbicide test; type: in vivo, Digitaria sanguinalis
How it was run: as §2

[3] = Postemergence, 125 g ai/ha, 0 to 100 scale, 0 is no effect, 100 is complete control
[4] = Postemergence, 500 g ai/ha, 0 to 100 scale (0 no effect, 100 complete control)
[5] = Preemergence, 125 g ai/ha, 0 to 100 scale where 0 is no effect and 100 is complete control
[6] = preemergence, 500 g ai/ha, 0 to 100 scale, 0 is no effect and 100 is complete control

O=C1NCC(c2ccc(C(F)(F)F)c(F)c2)C1C(=O)Nc1ccccc1C(F)(F)F (racemic) [Compound 248]
Plant response rating, Barnyardgrass (barnyardgrass [1]; 1000 g ai/ha): 55 | Plant response rating, Sedge, Umbrella (sedge, umbrella; 1000 g ai/ha): 0 | Plant response rating, Barnyardgrass (barnyardgrass [2]; [3]): 20 | Plant response rating, Barnyardgrass (barnyardgrass [2]; [4]): 50 | Plant response rating, Barnyardgrass (barnyardgrass [2]; [5]): 30 | Plant response rating, Barnyardgrass (barnyardgrass [2]; [6]): 80 | Plant response rating, Morningglory (morningglory; [3]): 0 | Plant response rating, Morningglory (morningglory; [4]): 0 | Plant response rating, Morningglory (morningglory; [5]): 0 | Plant response rating, Morningglory (morningglory; [6]): 0 | Plant response rating, Velvetleaf (velvetleaf; [3]): 0 | Plant response rating, Velvetleaf (velvetleaf; [4]): 0 | Plant response rating, Velvetleaf (velvetleaf; [5]): 0 | Plant response rating, Velvetleaf (velvetleaf; [6]): 0 | Plant response rating, Wheat (wheat; [3]): 0 | Plant response rating, Wheat (wheat; [4]): 0 | Plant response rating, Wheat (wheat; [5]): 0 | Plant response rating, Wheat (wheat; [6]): 0 | Plant response rating, Rice (rice; 1000 g ai/ha): 0 | Plant response rating, Ducksalad (ducksalad; 1000 g ai/ha): 95 | Plant response rating, Corn (corn; [3]): 0 | Plant response rating, Corn (corn; [4]): 20 | Plant response rating, Corn (corn; [5]): 0 | Plant response rating, Corn (corn; [6]): 0 | Plant response rating, Pigweed (pigweed; [3]): 0 | Plant response rating, Pigweed (pigweed; [4]): 0 | Plant response rating, Pigweed (pigweed; [5]): 0 | Plant response rating, Pigweed (pigweed; [6]): 0 | Plant response rating, Foxtail, Giant (giant foxtail; [3]): 30 | Plant response rating, Foxtail, Giant (giant foxtail; [4]): 50 | Plant response rating, Foxtail, Giant (giant foxtail; [5]): 80 | Plant response rating, Foxtail, Giant (giant foxtail; [6]): 90 | Plant response rating, Crabgrass, Large (crabgrass, large; [3]): 50 | Plant response rating, Crabgrass, Large (crabgrass, large; [4]): 70 | Plant response rating, Crabgrass, Large (crabgrass, large; [5]): 90 | Plant response rating, Crabgrass, Large (crabgrass, large; [6]): 90

O=C1NCC(c2ccc(C(F)(F)F)c(Cl)c2)C1C(=O)Nc1ccccc1F (racemic) [Compound 249]
Plant response rating, Barnyardgrass (barnyardgrass [1]; 1000 g ai/ha): 55 | Plant response rating, Sedge, Umbrella (sedge, umbrella; 1000 g ai/ha): 40 | Plant response rating, Barnyardgrass (barnyardgrass [2]; [3]): 30 | Plant response rating, Barnyardgrass (barnyardgrass [2]; [4]): 50 | Plant response rating, Barnyardgrass (barnyardgrass [2]; [5]): 50 | Plant response rating, Barnyardgrass (barnyardgrass [2]; [6]): 80 | Plant response rating, Morningglory (morningglory; [3]): 0 | Plant response rating, Morningglory (morningglory; [4]): 0 | Plant response rating, Morningglory (morningglory; [5]): 0 | Plant response rating, Morningglory (morningglory; [6]): 0 | Plant response rating, Velvetleaf (velvetleaf; [3]): 0 | Plant response rating, Velvetleaf (velvetleaf; [4]): 0 | Plant response rating, Velvetleaf (velvetleaf; [5]): 0 | Plant response rating, Velvetleaf (velvetleaf; [6]): 0 | Plant response rating, Wheat (wheat; [3]): 0 | Plant response rating, Wheat (wheat; [4]): 0 | Plant response rating, Wheat (wheat; [5]): 0 | Plant response rating, Wheat (wheat; [6]): 0 | Plant response rating, Rice (rice; 1000 g ai/ha): 15 | Plant response rating, Ducksalad (ducksalad; 1000 g ai/ha): 85 | Plant response rating, Corn (corn; [3]): 0 | Plant response rating, Corn (corn; [4]): 0 | Plant response rating, Corn (corn; [5]): 0 | Plant response rating, Corn (corn; [6]): 0 | Plant response rating, Pigweed (pigweed; [3]): 0 | Plant response rating, Pigweed (pigweed; [4]): 0 | Plant response rating, Pigweed (pigweed; [5]): 0 | Plant response rating, Pigweed (pigweed; [6]): 0 | Plant response rating, Foxtail, Giant (giant foxtail; [3]): 20 | Plant response rating, Foxtail, Giant (giant foxtail; [4]): 40 | Plant response rating, Foxtail, Giant (giant foxtail; [5]): 50 | Plant response rating, Foxtail, Giant (giant foxtail; [6]): 90 | Plant response rating, Crabgrass, Large (crabgrass, large; [3]): 0 | Plant response rating, Crabgrass, Large (crabgrass, large; [4]): 40 | Plant response rating, Crabgrass, Large (crabgrass, large; [5]): 80 | Plant response rating, Crabgrass, Large (crabgrass, large; [6]): 90

O=C1NCC(c2ccc(C(F)(F)F)c(Cl)c2)C1C(=O)Nc1cccc(F)c1F (racemic) [Compound 250]
Plant response rating, Barnyardgrass (barnyardgrass [1]; 1000 g ai/ha): 0 | Plant response rating, Sedge, Umbrella (sedge, umbrella; 1000 g ai/ha): 0 | Plant response rating, Barnyardgrass (barnyardgrass [2]; [3]): 30 | Plant response rating, Barnyardgrass (barnyardgrass [2]; [4]): 50 | Plant response rating, Barnyardgrass (barnyardgrass [2]; [5]): 20 | Plant response rating, Barnyardgrass (barnyardgrass [2]; [6]): 80 | Plant response rating, Morningglory (morningglory; [3]): 0 | Plant response rating, Morningglory (morningglory; [4]): 0 | Plant response rating, Morningglory (morningglory; [5]): 0 | Plant response rating, Morningglory (morningglory; [6]): 0 | Plant response rating, Velvetleaf (velvetleaf; [3]): 0 | Plant response rating, Velvetleaf (velvetleaf; [4]): 0 | Plant response rating, Velvetleaf (velvetleaf; [5]): 0 | Plant response rating, Velvetleaf (velvetleaf; [6]): 0 | Plant response rating, Wheat (wheat; [3]): 0 | Plant response rating, Wheat (wheat; [4]): 0 | Plant response rating, Wheat (wheat; [5]): 0 | Plant response rating, Wheat (wheat; [6]): 0 | Plant response rating, Rice (rice; 1000 g ai/ha): 0 | Plant response rating, Ducksalad (ducksalad; 1000 g ai/ha): 80 | Plant response rating, Corn (corn; [3]): 0 | Plant response rating, Corn (corn; [4]): 0 | Plant response rating, Corn (corn; [5]): 0 | Plant response rating, Corn (corn; [6]): 0 | Plant response rating, Pigweed (pigweed; [3]): 0 | Plant response rating, Pigweed (pigweed; [4]): 0 | Plant response rating, Pigweed (pigweed; [5]): 0 | Plant response rating, Pigweed (pigweed; [6]): 0 | Plant response rating, Foxtail, Giant (giant foxtail; [3]): 30 | Plant response rating, Foxtail, Giant (giant foxtail; [4]): 50 | Plant response rating, Foxtail, Giant (giant foxtail; [5]): 50 | Plant response rating, Foxtail, Giant (giant foxtail; [6]): 80 | Plant response rating, Crabgrass, Large (crabgrass, large; [3]): 0 | Plant response rating, Crabgrass, Large (crabgrass, large; [4]): 40 | Plant response rating, Crabgrass, Large (crabgrass, large; [5]): 80 | Plant response rating, Crabgrass, Large (crabgrass, large; [6]): 90

O=C1NCC(c2ccc(C(F)(F)F)c(Cl)c2)C1C(=O)Nc1ccccc1C(F)(F)F (racemic) [Compound 251]
Plant response rating, Barnyardgrass (barnyardgrass [1]; 1000 g ai/ha): 45 | Plant response rating, Sedge, Umbrella (sedge, umbrella; 1000 g ai/ha): 0 | Plant response rating, Barnyardgrass (barnyardgrass [2]; [3]): 0 | Plant response rating, Barnyardgrass (barnyardgrass [2]; [4]): 30 | Plant response rating, Barnyardgrass (barnyardgrass [2]; [5]): 20 | Plant response rating, Barnyardgrass (barnyardgrass [2]; [6]): 80 | Plant response rating, Morningglory (morningglory; [3]): 0 | Plant response rating, Morningglory (morningglory; [4]): 0 | Plant response rating, Morningglory (morningglory; [5]): 0 | Plant response rating, Morningglory (morningglory; [6]): 0 | Plant response rating, Velvetleaf (velvetleaf; [3]): 0 | Plant response rating, Velvetleaf (velvetleaf; [4]): 0 | Plant response rating, Velvetleaf (velvetleaf; [5]): 0 | Plant response rating, Velvetleaf (velvetleaf; [6]): 0 | Plant response rating, Wheat (wheat; [3]): 0 | Plant response rating, Wheat (wheat; [4]): 0 | Plant response rating, Wheat (wheat; [5]): 0 | Plant response rating, Wheat (wheat; [6]): 0 | Plant response rating, Rice (rice; 1000 g ai/ha): 0 | Plant response rating, Ducksalad (ducksalad; 1000 g ai/ha): 90 | Plant response rating, Corn (corn; [3]): 0 | Plant response rating, Corn (corn; [4]): 0 | Plant response rating, Corn (corn; [5]): 0 | Plant response rating, Corn (corn; [6]): 0 | Plant response rating, Pigweed (pigweed; [3]): 0 | Plant response rating, Pigweed (pigweed; [4]): 20 | Plant response rating, Pigweed (pigweed; [5]): 0 | Plant response rating, Pigweed (pigweed; [6]): 30 | Plant response rating, Foxtail, Giant (giant foxtail; [3]): 0 | Plant response rating, Foxtail, Giant (giant foxtail; [4]): 20 | Plant response rating, Foxtail, Giant (giant foxtail; [5]): 40 | Plant response rating, Foxtail, Giant (giant foxtail; [6]): 80 | Plant response rating, Crabgrass, Large (crabgrass, large; [3]): 0 | Plant response rating, Crabgrass, Large (crabgrass, large; [4]): 30 | Plant response rating, Crabgrass, Large (crabgrass, large; [5]): 80 | Plant response rating, Crabgrass, Large (crabgrass, large; [6]): 90

O=C1NCC(c2ccc(OC(F)(F)F)cc2)C1C(=O)Nc1cccc(F)c1F (racemic) [Compound 257]
Plant response rating, Barnyardgrass (barnyardgrass [1]; 250 g ai/ha): 0 | Plant response rating, Sedge, Umbrella (sedge, umbrella; 250 g ai/ha): 0 | Plant response rating, Barnyardgrass (barnyardgrass [2]; [3]): 50 | Plant response rating, Barnyardgrass (barnyardgrass [2]; [4]): 80 | Plant response rating, Barnyardgrass (barnyardgrass [2]; [5]): 40 | Plant response rating, Barnyardgrass (barnyardgrass [2]; [6]): 80 | Plant response rating, Morningglory (morningglory; [3]): 0 | Plant response rating, Morningglory (morningglory; [4]): 0 | Plant response rating, Morningglory (morningglory; [5]): 0 | Plant response rating, Morningglory (morningglory; [6]): 0 | Plant response rating, Velvetleaf (velvetleaf; [3]): 0 | Plant response rating, Velvetleaf (velvetleaf; [4]): 0 | Plant response rating, Velvetleaf (velvetleaf; [5]): 0 | Plant response rating, Velvetleaf (velvetleaf; [6]): 0 | Plant response rating, Wheat (wheat; [3]): 20 | Plant response rating, Wheat (wheat; [4]): 30 | Plant response rating, Wheat (wheat; [5]): 0 | Plant response rating, Wheat (wheat; [6]): 0 | Plant response rating, Rice (rice; 250 g ai/ha): 15 | Plant response rating, Ducksalad (ducksalad; 250 g ai/ha): 70 | Plant response rating, Corn (corn; [3]): 0 | Plant response rating, Corn (corn; [4]): 20 | Plant response rating, Corn (corn; [5]): 0 | Plant response rating, Corn (corn; [6]): 0 | Plant response rating, Pigweed (pigweed; [3]): 0 | Plant response rating, Pigweed (pigweed; [4]): 0 | Plant response rating, Pigweed (pigweed; [5]): 0 | Plant response rating, Pigweed (pigweed; [6]): 0 | Plant response rating, Foxtail, Giant (giant foxtail; [3]): 80 | Plant response rating, Foxtail, Giant (giant foxtail; [4]): 90 | Plant response rating, Foxtail, Giant (giant foxtail; [5]): 80 | Plant response rating, Foxtail, Giant (giant foxtail; [6]): 90 | Plant response rating, Crabgrass, Large (crabgrass, large; [3]): 90 | Plant response rating, Crabgrass, Large (crabgrass, large; [4]): 90 | Plant response rating, Crabgrass, Large (crabgrass, large; [5]): 90 | Plant response rating, Crabgrass, Large (crabgrass, large; [6]): 90

From patent US10294202B2, “Pyrrolidinones as herbicides” (FMC Corporation, priority 2013, dated 2019)
